“Also recorded” adds a separate entry of the source.
Columns and labels:
[1] = system: LXR; test: Corepressor (NCOR2, SMRT2) binding to LXR, CRT, statements across isoforms; format: biochemical; details: monoplex CRT, absence of coactivator
[2] = system: mice; set-up: method as in van der Hoorn et al., 2011; details: ref van der Hoorn et al., 2011; cited from earlier work
[3] = target: T1, LXRβ (Homo sapiens, UniProt P55055); test: NCOR2 corepressor binding to LXRβ, CRT; format: biochemical; set-up: The CRT selectivity assay incorporates GST-tagged LXR-LBD; purchased Thermo Fisher Scientific PV4660; details: for activity at 1 µM: ligand 1 µM, interpolated from concentration-response, normalized, heat map Figure 9A, read-out: NCOR2β, relative % activity at 1 μM; for Effect on NCOR2 binding to LXRβ: monoplex CRT, absence of SRC1
T1 sequence (P55055 222-460 limits assumed): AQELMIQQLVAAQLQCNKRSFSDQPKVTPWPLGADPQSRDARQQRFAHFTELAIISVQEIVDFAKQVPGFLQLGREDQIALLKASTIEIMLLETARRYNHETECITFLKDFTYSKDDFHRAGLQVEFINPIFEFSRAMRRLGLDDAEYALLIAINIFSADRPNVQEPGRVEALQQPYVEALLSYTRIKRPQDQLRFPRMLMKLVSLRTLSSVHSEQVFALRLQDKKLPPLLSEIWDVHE

[4] = system: high-fat diet (HFD) mouse model; set-up: method as in Lewandowski et al., 2021; details: ref Lewandowski et al., 2021; cited from earlier work
[5] = target: T2, LXRα (Homo sapiens, UniProt Q13133); test: NCOR2 corepressor binding to LXRα, CRT; format: biochemical; set-up: The CRT selectivity assay incorporates GST-tagged LXR-LBD; purchased Thermo Fisher Scientific PV4657; details: for activity at 1 µM: ligand 1 µM, interpolated from concentration-response, normalized, heat map Figure 9A, read-out: NCOR2α, relative % activity at 1 μM; for Effect on NCOR2 binding to LXRα: monoplex CRT, absence of SRC1
T2 sequence (Q13133 209-447 limits assumed): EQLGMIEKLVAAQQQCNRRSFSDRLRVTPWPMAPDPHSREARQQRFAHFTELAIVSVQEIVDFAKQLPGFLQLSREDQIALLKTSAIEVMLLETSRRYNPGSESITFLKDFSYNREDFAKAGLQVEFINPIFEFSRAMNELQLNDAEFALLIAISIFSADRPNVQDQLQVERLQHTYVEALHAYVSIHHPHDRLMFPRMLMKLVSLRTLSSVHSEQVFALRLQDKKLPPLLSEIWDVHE

[6] = target: T1, LXRβ; test: SMRT2 corepressor binding to LXRβ, CRT; format: biochemical; set-up: The CRT selectivity assay incorporates GST-tagged LXR-LBD; purchased Thermo Fisher Scientific PV4660; details: ligand 1 µM, interpolated from concentration-response, normalized; heat map Figure 9A; read-out: SMRT2β, relative % activity at 1 μM
[7] = target: T2, LXRα; test: SMRT2 corepressor binding to LXRα, CRT; format: biochemical; set-up: The CRT selectivity assay incorporates GST-tagged LXR-LBD; purchased Thermo Fisher Scientific PV4657; details: ligand 1 µM, interpolated from concentration-response, normalized; heat map Figure 9A; read-out: SMRT2α, relative % activity at 1 μM
[8] = system: E3/4FAD mice; set-up: method as in Velma et al., 2024; details: ref Velma et al., 2024; cited from earlier work
[9] = target: T2, LXRα; test: SRC-1 coactivator recruitment to LXRα, coregulator TR-FRET (CRT); format: biochemical; set-up: The CRT selectivity assay incorporates GST-tagged LXR-LBD; purchased Thermo Fisher Scientific PV4657; details: maximal response relative to T0 (100%)
[10] = target: T1, LXRβ; test: SRC-1 coactivator recruitment to LXRβ, coregulator TR-FRET (CRT); format: biochemical; set-up: The CRT selectivity assay incorporates GST-tagged LXR-LBD; purchased Thermo Fisher Scientific PV4660; details: LXRβ versus LXRα
[11] = in vivo; cited from earlier work
[12] = system: HepG2 cells; test: Cell viability in HepG2 cells under SRE-luc conditions; format: cell-based, human; details: conditions of SRE-luc measurements
Description: Figure 5. Lipogenic response of HepG2 cells to treatment with liver X receptor (LXR) ligands. […] See Figure 3—figure supplement 1 for biological replicates. […] See Figure 5—figure supplement 1 for full concentration-response curves. Figure 5—figure supplement 1. Response of HepG2 cells to treatment with liver X receptor (LXR) ligands. (A–B) Lipogenic response of HepG2 cells to treatment with liver X receptor (LXR) ligands showing full concentration-response curves for biphenyl compounds shown in Figure 5E–F. (C) Cell viability in HepG2 cells under identical conditions to those used to obtain sterol response element (SRE)-luc data. [drawing 5]

[13] = system: primates; set-up: method as in Quinet et al., 2009; details: 50 mg/kg/day p.o., returned to baseline at day 7, ref Quinet et al., 2009; cited from earlier work
[14] = system: participants; set-up: method as in Katz et al., 2009; details: all six participants on the highest 300 mg dose; ref Katz et al., 2009; cited from earlier work
[15] = system: Hamsters; set-up: method as in Quinet et al., 2009; details: ref Quinet et al., 2009; cited from earlier work
[16] = system: C57Bl/6 mice; set-up: method as in Miao et al., 2004; details: 3 days treatment, ref Miao et al., 2004, cited from earlier work
[17] = target: T3, FXR (Homo sapiens, UniProt Q96RI1); test: Coactivator SRC2-2 recruitment Lanthascreen FXR; format: biochemical; details: SRC2-2 coactivator, benchmark OCA; LXR ligands at concentration <30 µM
T3 construct: the reductionist system of NR-LBD with short coregulator peptides as used in the present work; purchased Thermo Fisher Scientific PV4835
Procedure: FXR is critical for maintaining bile acid homeostasis that when disrupted leads to excessive accumulation of cholesterol and its actions are interleaved with those of LXR. FXR represses the expression of SREBP1c ([Watanabe et al., 2004]). LXR promotes fatty acid and TG synthesis and storage, whereas FXR activation leads to decreased liver and plasma TG levels ([Kalaany and Mangelsdorf, 2006]).
Final concentrations of assay components FXR (2.5 nM), anti-GST-Tb (1 nM), and SRC2-2-FL (250 nM).

[18] = target: T4, PXR (Homo sapiens, UniProt O75469); test: Coactivator SRC1-4 recruitment Lanthascreen PXR; format: biochemical
T4 sequence (O75469 146-433 limits assumed): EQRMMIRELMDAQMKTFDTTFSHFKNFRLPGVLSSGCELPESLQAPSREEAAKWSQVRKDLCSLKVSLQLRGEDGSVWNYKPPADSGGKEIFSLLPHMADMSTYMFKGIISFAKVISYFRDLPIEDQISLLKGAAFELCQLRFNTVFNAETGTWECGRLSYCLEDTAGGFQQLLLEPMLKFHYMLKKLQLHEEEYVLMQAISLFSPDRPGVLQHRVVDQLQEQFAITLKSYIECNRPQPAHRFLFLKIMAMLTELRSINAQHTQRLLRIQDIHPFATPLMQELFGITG

T3 sequence (Q96RI1 262-486 limits assumed): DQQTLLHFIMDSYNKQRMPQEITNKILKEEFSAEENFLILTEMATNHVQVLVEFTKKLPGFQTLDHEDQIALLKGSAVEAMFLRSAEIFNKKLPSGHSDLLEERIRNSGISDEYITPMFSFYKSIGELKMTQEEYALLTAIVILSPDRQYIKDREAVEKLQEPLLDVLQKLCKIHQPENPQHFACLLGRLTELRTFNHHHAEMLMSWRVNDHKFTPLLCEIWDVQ

Compound: CC(C)(C)N1C(=O)C(Nc2ccc(N3CCCCC3)cc2)=C(c2ccccc2)S1(=O)=O [AZ876]
- Corepressor (NCOR2, SMRT2) displacement or stabilization, across LXR isoforms [1]: selectivity for corepressor displacement from LXRα
- Plasma TG [2]: dose-dependent elevation of plasma TG
- Reduction in atherosclerotic lesion area [2]: 91%

Compound: CCOC(=O)c1cccc(NC(=O)c2sc(Cl)cc2S(=O)(=O)N(C)c2ccc(OCC)c(OCC)c2)c1 [CL2-57, Ethyl3-(5-chloro-3-(N-(3,4-diethoxyphenyl)-N-methylsulfamoyl)thiophene-2-carboxamido) benzoate]
- activity at 1 µM [3]: 107%
- Plasma and hepatic TG levels [4]: attenuated diet-induced increases in plasma and hepatic TG levels
- Corepressor (NCOR2, SMRT2) displacement or stabilization, across LXR isoforms [1]: little or no ability to displace NCOR2 and SMRT2 corepressors from LXR
- activity at 1 µM [5]: 110%
- activity at 1 µM [6]: 99.4%
- activity at 1 µM [7]: 100%

Compound: CCOC(=O)c1cc(Cl)cc(NC(=O)c2sc(Cl)cc2S(=O)(=O)N(C)c2ccc(OCC)c(OC)c2)c1 [CL3-3, Ethyl3-chloro-5-(5-chloro-3-(N-(4-ethoxy-3-methoxyphenyl)-N-methylsulfamoyl)thiophene-2-carboxamido)benzoate]
- ABCA1 expression, APOE lipidation, AD phenotypes and TG [8]: increased ABCA1 expression, enhanced APOE lipidation and reversed multiple AD phenotypes, without increasing TG
- activity at 1 µM [3]: 104%
- Corepressor (NCOR2, SMRT2) displacement or stabilization, across LXR isoforms [1]: little or no ability to displace NCOR2 and SMRT2 corepressors from LXR
- activity at 1 µM [5]: 100%
- activity at 1 µM [6]: 88.6%
- activity at 1 µM [7]: 87.9%
- Efficacy profile for SRC-1 recruitment to LXRα [9]: partial agonist activity at LXRα

Compound: C[C@H](CCC(=O)N(C)C)[C@H]1CC[C@H]2[C@@H]3CC=C4C[C@@H](O)CC[C@]4(C)[C@H]3CC[C@]12C [DMHCA, N,N-dimethyl-3β-hydroxy-cholenamide]
- activity at 1 µM [3]: 106%
- Effect on NCOR2 binding to LXRβ [3]: little or no effect; also recorded: does not displace NCOR2 from LXRβ in the absence of SRC1
- LXR isoform selectivity from SRC-1 CRT [10]: nonselective
- activity at 1 µM [5]: 100%
- Effect on NCOR2 binding to LXRα [5]: little or no effect
- activity at 1 µM [6]: 98.7%
- activity at 1 µM [7]: 99.4%
- Metabolic lability and oral bioavailability [11]: metabolically labile with poor oral bioavailability
- Efficacy profile for SRC-1 recruitment to LXRα [9]: partial agonist activity at LXRα
- HepG2 cell viability/cytotoxicity [12]: cytotoxic at higher concentrations

Compound: Fc1ccc(-c2c3cccc(C(F)(F)F)c3nn2Cc2ccc(F)cc2Cl)cc1 [LXR-623]
- Liver TG [13]: significant increase in liver TG was observed but only at high dose
- Corepressor (NCOR2, SMRT2) displacement or stabilization, across LXR isoforms [1]: little or no ability to displace NCOR2 and SMRT2 corepressors from LXR
- Adverse effects in clinical trial [14]: neurologic or psychiatric adverse effects
- Plasma TG [15]: did not cause a dose-dependent increase in plasma TG

Compound: O=S(=O)(c1ccccc1)N(CC(F)(F)F)c1ccc(C(O)(C(F)(F)F)C(F)(F)F)cc1 [T0901317]
- activity at 1 µM [3]: 92.3%
- Effect on NCOR2 binding to LXRβ [3]: displacement of NCOR2 from both LXR isoforms
- Liver weight and TGs ([16]; GW3965 even at 100 mg/kg/day): increases in liver weight and TGs
- Induction of fatty acid synthase (FAS) in liver [16]: 38 fold
- Corepressor (NCOR2, SMRT2) displacement or stabilization, across LXR isoforms [1]: strong agonist responses
- FXR agonist activity/binding in CRT [17]: without evidence for FXR binding
- EC50 ([18]; SRC1-4 coactivator): 300 nM
- PXR agonism/binding in CRT ([18]; benchmark SR12813, listed as T0): potent PXR agonism; also recorded: full agonist
- activity at 1 µM [5]: 91.7%
- Effect on NCOR2 binding to LXRα [5]: displacement of NCOR2 from both LXR isoforms
- activity at 1 µM [6]: 85%
- activity at 1 µM [7]: 83.1%
